Measurements: US20150112425A1, “DELIVERY OF HIGHLY LIPOPHILIC AGENTS VIA MEDICAL DEVICES” (Abbott Laboratories, priority 2005, published 2015)
Where two headings read alike, the source gives them in different places.

What was measured:
[1] = Six-hour elution from PC1036-coated coupons (FIG. 10-13); assay type: physicochemical; details: for Amount released from coupon: after 6 hours, pH 7.4 PBS, 37° C.; for Amount remaining on coupon: six-hour elution
Experimental: Prior to any experimentation, coated stainless steel coupons were prepared. These coupons were 316 L electropolished stainless steel discs (10 mm diameter). This size was chosen because the surface area of one side of the coupon is similar to the surface area of a 15-mm open cell BiodivYsio stent. […]. The cleaning was a two-step process in which the coupons are sonicated for 3 minutes in dichloromethylene and 3 minutes in ethanol. The coupons were allowed to dry at room temperature. One side of the coupon was coated using a filtered 20-mg/mL solution of phosphoryl choline polymer PC1036 (product of Biocompatibles Ltd., Farnham, Surrey, UK) in ethanol. Twenty μL PC solution was placed onto the coupon using a gas tight glass syringe, ensuring that the entire surface was coated but not spilling over the sides of the coupon. The coupons were initially air dried and then cured at 70° C. for 16 hours. They were then sent for gamma irradiation at <25KGy. The resulting PC coating thickness was close to that of the stent and thick enough to accommodate the desired loaded drug dose, as graphically represented in FIG. 9A-B. FIG. 9A-B is a top and side view of a coated stainless steel coupon 30, having a PC-coating 20 on a electropolished stainless steel disc.
In these experiments, beneficial agents were loaded onto coupons and elution profiles examined. In general, the procedure is as follows. Twelve PC-coated coupons were loaded with each drug. The solutions of the drugs were usually 5.0 mg/mL in 100% ethanol and were filtered with a 0.45 μm filter prior to use.
The coupons were weighed before loading with the drug solution. To load 100 μg of drug, 20 μL of solution was placed (e.g., pipetted) on the center of the PC coated side of the coupon. The coupon was placed in a vial for 30 minutes with the lid closed to allow the drug to penetrate the coating. The lid was removed and the coupon was allowed to dry for an additional 90 minutes. To ensure that the coupon was completely dry, the coupon was weighed, and after 15 minutes the coupon was weighed a third time. When two weightings of the coupon were the same, the coupon was considered dry. The loaded, dry coupons were stored in a refrigerator protected from light.
For each drug, six coupons were used to evaluate the total amount of drug loaded by the above procedure. The coupons were immersed in 5 mL of 50% ethanol, 50% water solution and sonicated for 1 hour. The concentration of the drug in the extraction solution was analyzed by HPLC.
At the end of the elution experiments discussed below, the coupons were removed from the elution media and immersed in 5 mL of 50% ethanol, 50% water solution and sonicated for 1 hour. The concentration of the drug in these vials indicated the amount of the drug remaining in the coupons at the end of the elution experiments.
Six coated coupons of each drug were used for the elution experiments. The coupons were individually placed, coating side up, in small metal cups to hold the coupon and to allow movement to a new vial at each time point. The coupons were usually placed in a vial containing 10 mL of pH 7.4 phosphate buffered saline. The vials were stored in an orbital shaker, with horizontal shaking of 100 rpm, at 37° C. for at least 30 minutes before insertion of a coupon to allow the solution to equilibrate at the desired temperature. After the desired time had lapsed, the coupon holder was lifted and allowed to drain. It was then placed into a pre-warmed vial corresponding to the next time point. This procedure continued until the predetermined time had elapsed. At that point, the coupons went through a drug extraction step as outlined earlier. The amount of drug in the elution samples was determined by HPLC.

[2] = representative summary; cited from earlier work
[3] = Transfer coefficient (P divided by S) of DES drugs (FIG. 21); assay type: physicochemical; details: P divided by equilibrium aqueous solubility S (μg/ml)
[4] = Shake-flask octanol/water partition coefficient study of DES drugs (FIG. 20); assay type: physicochemical
Experimental: “Solubility” is based on a standard measure used in medicinal chemistry. The octanol-water partition coefficient (P) is the ratio of distribution of a compound in a mixture of 1-octanol and H2O. Log P is the base 10 logarithm of the partition coefficient.
In the measurement of the partition coefficient (octanol/water), preliminary studies were conducted to determine the optimum drug concentration for each test, and the appropriate time for establishing the partition equilibrium. All experiments were carried out by two different analysts and on multiple drug lots.

[5] = Shake-flask aqueous solubility study of DES drugs (FIG. 20); details: amorphous DES drugs; dexamethasone crystalline
[6] = tested on: human mixed lymphocyte reaction (MLR); test: Human mixed lymphocyte reaction (MLR) assay; assay type: cell-based; details: read-out: Human MLR IC50 ± S.E.M.
[7] = Stability of dexamethasone on PC-coated stents in ETO sterilization (FIG. 16); assay type: physicochemical
[8] = Pharmacokinetics after single intravenous dose in cynomolgus monkey; assay type: in vivo; details: for t1/2: terminal elimination, single 2.5 mg/kg intravenous dose, blood; for Terminal elimination half-life compared to rapamycin: cynomolgus monkey, intravenous

## CCCCN(CCCC)C(=O)CN1C[C@H](c2ccc3c(c2)OCO3)[C@@H](C(=O)O)[C@@H]1c1ccc(OC)cc1.Cl [ABT-627, atrasentan]
[1]; in absence of zotarolimus
  Amount released from coupon: 50%
[1]; in presence of zotarolimus
  Amount released from coupon: less than 10%
[2]
  LogP Values: 3.4

## CCCCCCCCCCCCCCCCCC(=O)O [Stearic acid]
[2]
  LogP Values: >6

## CC[C@]1(O)C[C@@H]2CN(CCc3c([nH]c4ccccc34)[C@@](C(=O)OC)(c3cc4c(cc3OC)N(C)[C@H]3[C@@](O)(C(N)=O)[C@H](O)[C@]5(CC)C=CCN6CC[C@]43[C@@H]65)C2)C1 [Vindesine]
[2]
  LogP Values: 1.3

## CC(=O)[C@H]1CC[C@H]2[C@@H]3CCC4=CC(=O)CC[C@]4(C)[C@H]3CC[C@]12C [Progesterone]
[2]
  LogP Values: 3.2

## CC[C@]1(O)C[C@@H]2CN(CCc3c([nH]c4ccccc34)[C@@](C(=O)OC)(c3cc4c(cc3OC)N(C)[C@H]3[C@@](O)(C(=O)OC)[C@H](OC(C)=O)[C@]5(CC)C=CCN6CC[C@]43[C@@H]65)C2)C1 [Vinblastine]
[2]
  LogP Values: 3.6

## OCCN(CCO)c1nc(N2CCCCC2)c2nc(N(CCO)CCO)nc(N3CCCCC3)c2n1 [Dipyridamole]
[1]; in absence of zotarolimus
  Amount released from coupon: ~90%
[1]; in presence of zotarolimus
  Amount released from coupon: about 52%

## CO[C@H]1C[C@@H]2CC[C@@H](C)[C@@](O)(O2)C(=O)C(=O)N2CCCC[C@H]2C(=O)O[C@H]([C@H](C)C[C@@H]2CC[C@@H](O)[C@H](OC)C2)CC(=O)[C@H](C)/C=C(\C)[C@@H](O)[C@@H](OC)C(=O)[C@H](C)C[C@H](C)/C=C/C=C/C=C/1C [Rapamycin]
[3]
  Transfer coefficient, rank order: zotarolimus>>paclitaxel>>rapamycin>dexamethasone
[4]
  Lipophilicity rank among DES drugs tested: the most lipophilic compounds in the group tested
[5]
  Aqueous solubility, rank order: increasing order: paclitaxel, zotarolimus, rapamycin, and dexamethasone (crystalline)
[6]; Homo sapiens, Lymphocyte
  IC50: 0.91 ± 0.36 nM
[2]
  LogP Values: >4.5

## C[C@@H]1C[C@H]2[C@@H]3CCC4=CC(=O)C=C[C@]4(C)[C@@]3(F)[C@@H](O)C[C@]2(C)[C@@]1(O)C(=O)CO [Dexamethasone]
[7]; dexamethasone-only coating
  Degradation in ETO sterilization environment: degraded
[7]; loaded in combination with zotarolimus, 1-to-1 ratio
  Degradation in ETO sterilization environment: did not degrade
[5]
  Aqueous solubility, rank order: increasing order: paclitaxel, zotarolimus, rapamycin, and dexamethasone (crystalline)
[1]; coupon containing zotarolimus
  Amount remaining on coupon: ~70%
[1]; no zotarolimus present
  Amount remaining on coupon: 25%
[2]
  LogP Values: ~1.9-2.2

## 40-epi-N-[2′-pyridone]-rapamycin [Example 2-pyridone]
[8]
  t1/2: 2.8 h
[6]
  IC50: 12.4 ± 5.3 nM

## COc1ccccc1OCCNCC(O)COc1cccc2[nH]c3ccccc3c12 (centres unmarked) [Carvedilol]
[2]
  LogP Values: 1.97

## CC/C=C\C/C=C\C/C=C\CCCCCCCC(=O)O [Linolenic acid]
[2]
  LogP Values: >6

## CC(=O)O[C@H]1C(=O)[C@@]2(C)[C@H]([C@H](OC(=O)c3ccccc3)[C@]3(O)C[C@H](OC(=O)[C@H](O)[C@@H](NC(=O)c4ccccc4)c4ccccc4)C(C)=C1C3(C)C)[C@]1(OC(C)=O)CO[C@@H]1C[C@@H]2O [Paclitaxel]
[3]
  Transfer coefficient, rank order: zotarolimus>>paclitaxel>>rapamycin>dexamethasone
[5]
  Aqueous solubility, rank order: increasing order: paclitaxel, zotarolimus, rapamycin, and dexamethasone (crystalline)

## COC1CC2CCC(C)C(O)(O2)C(=O)C(=O)N2CCCCC2C(=O)OC(C(C)CC2CCC(n3ccc(=O)cc3)C(OC)C2)CC(=O)C(C)C=C(C)C(O)C(OC)C(=O)C(C)CC(C)C=CC=CC=C1C (stereo not drawn) [Example 4-pyridone, 40-epi-N-[4′-pyridone]-rapamycin]
[8]
  t1/2: 13.3 h
[6]
  IC50: 0.43 ± 0.2 nM

## CC(C)(Sc1cc(C(C)(C)C)c(O)c(C(C)(C)C)c1)Sc1cc(C(C)(C)C)c(O)c(C(C)(C)C)c1 [Probucol]
[2]
  LogP Values: >8

## COC1CC2CCC(C)C(O)(O2)C(=O)C(=O)N2CCCCC2C(=O)OC(C(C)CC2CCC(n3cnnn3)C(OC)C2)CC(=O)C(C)C=C(C)C(O)C(OC)C(=O)C(C)CC(C)C=CC=CC=C1C (single isomer, unassigned; more polar) [Example 2, 42-Epi-(tetrazolyl)-rapamycin (more polar isomer)]
[8]
  Terminal elimination half-life compared to rapamycin: substantially shorter

## CCCCC/C=C\C/C=C\CCCCCCCC(=O)O [Linoleic acid]
[2]
  LogP Values: >6

## CC(C)OC(=O)C(C)(C)Oc1ccc(C(=O)c2ccc(Cl)cc2)cc1 [Fenofibrate]
[2]
  LogP Values: >4.5

## CO[C@H]1C[C@@H]2CC[C@@H](C)[C@@](O)(O2)C(=O)C(=O)N2CCCC[C@H]2C(=O)O[C@H]([C@H](C)C[C@@H]2CC[C@H](n3ncnn3)[C@H](OC)C2)CC(=O)[C@H](C)/C=C(\C)[C@@H](O)[C@@H](OC)C(=O)[C@H](C)C[C@H](C)/C=C/C=C/C=C/1C (single isomer, unassigned; less polar) [Example 1, 42-Epi-(tetrazolyl)-rapamycin (less polar isomer)]
[8]
  Terminal elimination half-life compared to rapamycin: substantially shorter

## CCCCCCCC/C=C\CCCCCCCC(=O)O [Oleic acid]
[2]
  LogP Values: >6

## C#C[C@]1(O)CC[C@H]2[C@@H]3CCC4=Cc5oncc5C[C@]4(C)[C@H]3CC[C@@]21C [Danazol]
[2]
  LogP Values: 4.5

## CC[C@]1(O)C[C@H]2CN(CCc3c([nH]c4ccccc34)[C@@](C(=O)OC)(c3cc4c(cc3OC)N(C=O)[C@H]3[C@@](O)(C(=O)OC)[C@H](OC(C)=O)[C@]5(CC)C=CCN6CC[C@]43[C@@H]65)C2)C1 [Vincristine]
[2]
  LogP Values: 2.6

## O=C(Oc1ccccc1)c1ccccc1O [Phenyl salicylate]
[2]
  LogP Values: 4.1

## C=CC[C@@H]1/C=C(\C)C[C@H](C)C[C@H](OC)[C@H]2O[C@@](O)(C(=O)C(=O)N3CCCC[C@H]3C(=O)O[C@H](/C(C)=C/[C@@H]3CC[C@@H](O)[C@H](OC)C3)[C@H](C)[C@@H](O)CC1=O)[C@H](C)C[C@@H]2OC [Tacrolimus]
[2]
  LogP Values: >4.5
